Test results taken from patent US8916593B2, “Alkoxy-substituted 2-aminopyridines as ALK inhibitors” (Pfizer Inc., priority 2010, dated 2014).
Counter-ions that a name gives are not always drawn. Like-named read-outs stand apart in the source and are kept apart here.

Tests used:
[1] = biological target: T1, human recombinant wild-type ALK kinase domain (amino acids 1093-1411) (Homo sapiens, UniProt Q9UM73); assay: ALK enzyme assay 2 (microfluidic mobility shift assay); type: biochemical;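 note: kinase reaction run 1 h at room temperature, conversion quantified by electrophoretic separation of fluorescent peptide substrate from phosphorylated product, about 15-20% turnover without inhibitor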
T1 construct: ALK kinase domain (amino acids 1093-1411); made in house
T1 sequence (Q9UM73 1093-1411): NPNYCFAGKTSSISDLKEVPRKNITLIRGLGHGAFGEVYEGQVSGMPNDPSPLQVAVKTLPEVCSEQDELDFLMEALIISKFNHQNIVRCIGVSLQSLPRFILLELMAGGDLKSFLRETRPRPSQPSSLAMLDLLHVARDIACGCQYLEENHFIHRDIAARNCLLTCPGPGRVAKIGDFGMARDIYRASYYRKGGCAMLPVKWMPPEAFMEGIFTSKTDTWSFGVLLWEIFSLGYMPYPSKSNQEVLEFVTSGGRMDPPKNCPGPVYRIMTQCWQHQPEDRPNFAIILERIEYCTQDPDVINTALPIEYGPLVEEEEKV
Procedure: The reactions were incubated for 1 h at room temperature, stopped by the addition of 0.1 M EDTA, pH 8, and the extent of reactions (˜15-20% conversion with no inhibitor) was determined after electrophoretic separation of the fluorescently labeled peptide substrate and phosphorylated product on an LabChip EZ Reader II (Caliper Life Sciences, Hopkinton, Mass.).

[2] = biological target: T2, ALK enzyme (Homo sapiens, UniProt Q9UM73); assay: ALK enzymatic activity assay 1; type: biochemical
T2 construct: purchased Invitrogen PV4185
T2 sequence (Q9UM73 19-1620): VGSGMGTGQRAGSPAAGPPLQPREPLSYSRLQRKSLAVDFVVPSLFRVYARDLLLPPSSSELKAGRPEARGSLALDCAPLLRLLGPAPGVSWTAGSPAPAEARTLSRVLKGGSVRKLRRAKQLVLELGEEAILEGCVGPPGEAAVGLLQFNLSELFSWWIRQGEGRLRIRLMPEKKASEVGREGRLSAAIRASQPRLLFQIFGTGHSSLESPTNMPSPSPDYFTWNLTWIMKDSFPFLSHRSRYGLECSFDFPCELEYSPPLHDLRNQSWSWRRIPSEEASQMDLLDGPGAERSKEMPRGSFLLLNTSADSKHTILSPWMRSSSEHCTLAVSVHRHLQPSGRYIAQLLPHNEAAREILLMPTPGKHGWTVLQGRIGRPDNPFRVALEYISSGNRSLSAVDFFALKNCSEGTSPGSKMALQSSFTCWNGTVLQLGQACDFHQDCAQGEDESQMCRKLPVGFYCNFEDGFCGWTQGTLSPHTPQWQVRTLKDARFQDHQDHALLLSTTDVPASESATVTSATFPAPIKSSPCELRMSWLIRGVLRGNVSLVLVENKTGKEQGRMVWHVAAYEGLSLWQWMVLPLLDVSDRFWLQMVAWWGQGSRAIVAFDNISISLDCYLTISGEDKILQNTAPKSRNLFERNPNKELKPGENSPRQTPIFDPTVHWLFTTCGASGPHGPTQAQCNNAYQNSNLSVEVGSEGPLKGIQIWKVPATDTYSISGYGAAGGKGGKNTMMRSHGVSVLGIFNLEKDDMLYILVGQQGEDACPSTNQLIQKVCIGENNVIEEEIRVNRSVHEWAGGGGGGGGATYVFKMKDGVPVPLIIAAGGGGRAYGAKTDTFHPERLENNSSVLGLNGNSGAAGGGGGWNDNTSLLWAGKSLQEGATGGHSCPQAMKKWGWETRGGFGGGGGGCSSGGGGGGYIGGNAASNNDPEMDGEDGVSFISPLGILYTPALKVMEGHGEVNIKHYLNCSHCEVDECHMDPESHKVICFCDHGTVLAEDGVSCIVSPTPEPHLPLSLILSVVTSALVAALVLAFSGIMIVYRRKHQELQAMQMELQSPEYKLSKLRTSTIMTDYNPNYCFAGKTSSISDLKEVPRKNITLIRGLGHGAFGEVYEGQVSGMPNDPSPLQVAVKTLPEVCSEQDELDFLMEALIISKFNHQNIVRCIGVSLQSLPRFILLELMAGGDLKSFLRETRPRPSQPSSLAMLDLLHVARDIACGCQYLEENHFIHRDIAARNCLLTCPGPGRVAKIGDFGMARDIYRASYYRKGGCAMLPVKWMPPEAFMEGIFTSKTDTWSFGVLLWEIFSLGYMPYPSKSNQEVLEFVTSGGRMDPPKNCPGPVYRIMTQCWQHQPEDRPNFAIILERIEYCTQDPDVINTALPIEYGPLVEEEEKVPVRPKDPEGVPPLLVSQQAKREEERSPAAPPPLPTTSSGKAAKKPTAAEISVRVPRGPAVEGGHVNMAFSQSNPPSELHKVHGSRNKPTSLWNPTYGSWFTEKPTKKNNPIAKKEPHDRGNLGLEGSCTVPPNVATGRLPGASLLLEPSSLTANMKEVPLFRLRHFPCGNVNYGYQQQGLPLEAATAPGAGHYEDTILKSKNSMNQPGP
Procedure: ALK Enzymatic Activity Assay 1
Compounds were added at a final concentration of 1% DMSO in half-log dilutions, starting at 20 μM final concentration. The reactions were initiated by the addition of 10 μL of peptide/ATP mix to 10 μL enzyme and 2 μL of compound in 384-well plate. […] On the 12-sipper chip, substrate and phosphorylated product were separated with an upstream voltage of −2650 V, a downstream voltage of −500 V, and a screen pressure of −1.5 psi. The relative peak heights of substrate and product were measured and ratios were calculated using HTS Well Analyzer Software version 5.2.43 from the manufacturer.

[3] = biological target: EML4-ALK wt v1 in NIH-3T3 cells (Homo sapiens, UniProt Q9UM73)
EML4-ALK wt v1 in NIH-3T3 cells, sequence (Q9UM73 with tags, fused parts or gaps): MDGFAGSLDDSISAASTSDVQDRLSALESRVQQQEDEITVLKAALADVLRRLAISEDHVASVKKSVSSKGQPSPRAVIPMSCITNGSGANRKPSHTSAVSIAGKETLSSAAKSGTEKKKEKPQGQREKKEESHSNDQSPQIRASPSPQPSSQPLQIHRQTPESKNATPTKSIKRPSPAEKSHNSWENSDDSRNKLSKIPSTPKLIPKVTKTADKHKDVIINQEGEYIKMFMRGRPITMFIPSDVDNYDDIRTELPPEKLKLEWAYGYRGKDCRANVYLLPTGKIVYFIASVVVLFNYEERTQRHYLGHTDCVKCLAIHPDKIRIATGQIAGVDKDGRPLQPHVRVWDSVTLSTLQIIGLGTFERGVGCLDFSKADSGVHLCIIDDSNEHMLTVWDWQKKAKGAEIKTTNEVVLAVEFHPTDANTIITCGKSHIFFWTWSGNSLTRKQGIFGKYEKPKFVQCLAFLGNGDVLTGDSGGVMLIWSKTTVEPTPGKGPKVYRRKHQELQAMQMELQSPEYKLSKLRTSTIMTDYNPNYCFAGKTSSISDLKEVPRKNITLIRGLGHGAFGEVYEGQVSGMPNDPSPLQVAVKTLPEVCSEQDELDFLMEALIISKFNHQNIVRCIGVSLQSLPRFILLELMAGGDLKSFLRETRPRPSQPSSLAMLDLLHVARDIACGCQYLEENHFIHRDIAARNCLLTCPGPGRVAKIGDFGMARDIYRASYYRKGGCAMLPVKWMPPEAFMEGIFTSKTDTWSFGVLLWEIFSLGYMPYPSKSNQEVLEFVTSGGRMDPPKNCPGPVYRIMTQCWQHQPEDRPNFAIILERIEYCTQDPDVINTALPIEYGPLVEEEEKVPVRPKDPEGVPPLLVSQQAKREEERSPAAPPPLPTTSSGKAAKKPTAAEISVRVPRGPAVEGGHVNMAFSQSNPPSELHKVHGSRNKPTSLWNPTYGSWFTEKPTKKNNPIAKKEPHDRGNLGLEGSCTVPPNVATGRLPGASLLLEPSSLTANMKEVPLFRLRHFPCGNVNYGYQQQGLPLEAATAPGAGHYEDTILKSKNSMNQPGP

[4] = biological target: T3, cMet enzyme (Homo sapiens, UniProt P08581); assay: cMet enzymatic activity assay; type: biochemical; conditions: purified cMet enzyme 7.5 nM, ATP 17 μM (Km)
T3 construct: RTC Lot#032006
T3 sequence (P08581 25-1390): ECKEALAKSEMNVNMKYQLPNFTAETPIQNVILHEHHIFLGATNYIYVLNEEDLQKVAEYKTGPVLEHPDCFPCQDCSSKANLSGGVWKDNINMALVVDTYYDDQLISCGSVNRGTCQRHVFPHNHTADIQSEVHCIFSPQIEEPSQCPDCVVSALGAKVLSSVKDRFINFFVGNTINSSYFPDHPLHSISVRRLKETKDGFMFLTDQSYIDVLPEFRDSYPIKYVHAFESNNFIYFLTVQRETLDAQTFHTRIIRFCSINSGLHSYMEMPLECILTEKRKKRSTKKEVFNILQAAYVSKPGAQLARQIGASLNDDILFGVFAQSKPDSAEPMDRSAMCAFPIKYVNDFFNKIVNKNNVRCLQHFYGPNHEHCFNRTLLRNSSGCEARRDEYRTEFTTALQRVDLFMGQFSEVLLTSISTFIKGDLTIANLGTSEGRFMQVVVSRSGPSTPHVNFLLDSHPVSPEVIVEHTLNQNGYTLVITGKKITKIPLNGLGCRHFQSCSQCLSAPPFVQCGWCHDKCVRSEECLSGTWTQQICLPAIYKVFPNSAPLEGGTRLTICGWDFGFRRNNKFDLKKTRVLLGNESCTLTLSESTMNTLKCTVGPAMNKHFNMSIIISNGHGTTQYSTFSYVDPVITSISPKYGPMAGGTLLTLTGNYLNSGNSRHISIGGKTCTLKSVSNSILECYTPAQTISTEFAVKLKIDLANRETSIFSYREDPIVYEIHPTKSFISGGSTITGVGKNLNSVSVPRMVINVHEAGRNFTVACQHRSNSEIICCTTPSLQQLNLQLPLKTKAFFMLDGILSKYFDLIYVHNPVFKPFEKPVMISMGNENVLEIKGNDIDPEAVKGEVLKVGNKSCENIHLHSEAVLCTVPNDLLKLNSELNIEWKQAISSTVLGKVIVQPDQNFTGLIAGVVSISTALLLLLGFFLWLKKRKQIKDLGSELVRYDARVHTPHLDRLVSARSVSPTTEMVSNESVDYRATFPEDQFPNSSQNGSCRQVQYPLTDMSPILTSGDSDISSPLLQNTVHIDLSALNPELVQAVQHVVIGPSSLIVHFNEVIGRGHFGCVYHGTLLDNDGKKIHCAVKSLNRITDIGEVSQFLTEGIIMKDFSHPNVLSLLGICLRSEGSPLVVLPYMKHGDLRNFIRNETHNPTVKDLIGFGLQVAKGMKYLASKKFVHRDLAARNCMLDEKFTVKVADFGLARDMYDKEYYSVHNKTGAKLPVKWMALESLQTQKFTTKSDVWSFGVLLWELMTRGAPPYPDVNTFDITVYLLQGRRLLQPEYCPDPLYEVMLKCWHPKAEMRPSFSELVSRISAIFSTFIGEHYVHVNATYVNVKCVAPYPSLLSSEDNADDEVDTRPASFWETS
Procedure: cMet Enzymatic Activity Assay
Compounds were added at a final concentration of 2% DMSO in half-log dilutions, starting at 20 μM final concentration. The reactions were initiated by addition of 10 μL of peptide/ATP mix to 10 μL enzyme and 5 μL of compound in 384-well plate. […] Substrate and phosphorylated product were separated with an upstream voltage of −2650 V, a downstream voltage of −500V, and a screen pressure of −1.5 psi. The relative peak heights of substrate and product were measured and ratios were calculated using HTS Well Analyzer Software version 5.2.43 from the manufacturer.

Compound	Ki [1] [nM]	IC50 [2] [nM]	IC50 [3] [nM]	IC50 [4] [nM]	IC50 ([2]; purified ALK enzyme 10 nM, ATP 25 μM (Km)) [nM]	IC50 ([3]; read-out: ELISA assay for WT EML4-ALK (IC50), cellular phospho-ALK (Tyr1604), NIH-3T3 EML4-ALK wt v1 cells, 1 hour) [nM]
CC(Oc1cc(-c2ccnn2C)cnc1N)c1cc(F)ccc1C#N (single isomer, unassigned) [Example 44]	6.9	57	411	6480		
C=Cn1nnc(C)c1-c1cnc(N)c(OC(C)c2cc(F)ccc2OC)c1 (stereo not shown) [Example 1, 3-[1-(5-Fluoro-2-methoxyphenyl)ethoxy]-5-(4-methyl-1-vinyl-1H-1,2,3-triazol-5-yl)pyridin-2-amine]	2.9	61.4	144	> 18800		
COc1ccc(F)cc1C(C)Oc1cc(-c2cnnn2CCO)cnc1N (stereo not shown) [Example 2, 2-(5-{6-amino-5-[1-(5-fluoro-2-methoxyphenyl)ethoxy]-pyridin-3-yl}-1H-1,2,3-triazol-1-yl)ethanol]	220	135	> 1000	> 20000		
COc1ccc(F)cc1C(C)Oc1cc(-c2cncc(S(C)(=O)=O)c2)cnc1N (stereo not shown) [Example 4, 5-[1-(5-fluoro-2-methoxyphenyl)ethoxy]-5′-(methylsulfonyl)-3,3′-bipyridin-6-amine]	1.93	51.7	72.4	7610		
COc1ccc(F)cc1C(C)Oc1cc(-c2cnc(N)nc2C)cnc1N (stereo not shown) [Example 5, 5-{6-amino-5-[1-(5-fluoro-2-methoxyphenyl)ethoxy]-pyridin-3-yl}-4-methylpyrimidin-2-amine]		48		13000		
COc1ccc(F)cc1C(C)Oc1cc(-c2c(C)n[nH]c2C)cnc1N (stereo not shown) [Example 6, 5-(3,5-dimethyl-1H-pyrazol-4-yl)-3-[1-(5-fluoro-2-methoxyphenyl)ethoxy]-pyridin-2-amine]	0.62	33.6		6740		
COc1ccc(F)cc1C(C)Oc1cc(-c2c(C)nn(C)c2C)cnc1N (stereo not shown) [Example 7, 3-[1-(5-fluoro-2-methoxyphenyl)ethoxy]-5-(1,3,5-trimethyl-1H-pyrazol-4-yl)pyridin-2-amine]	0.536	44.9	33	10200		
COc1ccc(F)cc1C(C)Oc1cc(-c2cccnc2O)cnc1N (stereo not shown) [Example 8, 6′-amino-5′-[1-(5-fluoro-2-methoxyphenyl)ethoxy]-3,3′-bipyridin-2-ol]		98.2		17400		
COc1ccc(F)cc1C(C)Oc1cc(-c2c(C)nnn2C)cnc1N (stereo not shown) [Example 10, 5-(1,4-dimethyl-1H-1,2,3-triazol-5-yl)-3-[1-(5-fluoro-2-methoxyphenyl)ethoxy]-pyridin-2-amine]		86	361	> 20000		
COc1ccc(F)cc1C(C)Oc1cc(-c2ccnn2CCO)cnc1N (stereo not shown) [Example 11, 2-(5-{6-amino-5-[1-(5-fluoro-2-methoxyphenyl)ethoxy]-pyridin-3-yl}-1H-pyrazol-1-yl)ethanol]	6.3	52.2	245	> 20000		
COc1ccc(F)cc1C(C)Oc1cc(-c2cnn(C)c2CO)cnc1N (stereo not shown) [Example 12, (4-{6-amino-5-[1-(5-fluoro-2-methoxyphenyl)ethoxy]-pyridin-3-yl}-1-methyl-1H-pyrazol-5-yl)methanol]	2.1	70.6	194	8420		
COc1ccc(F)cc1C(C)Oc1cc(-c2ncsc2CO)cnc1N (stereo not shown) [Example 13, (4-{6-amino-5-[1-(5-fluoro-2-methoxyphenyl)ethoxy]-pyridin-3-yl}-1,3-thiazol-5-yl)methanol]	5.5	132	591	> 20000		
COc1ccc(F)cc1C(C)Oc1cc(-c2scnc2CO)cnc1N (stereo not shown) [Example 14, (5-{6-amino-5-[1-(5-fluoro-2-methoxyphenyl)ethoxy]-pyridin-3-yl}-1,3-thiazol-4-yl)methanol]		74.8		8290		
COc1ccc(F)cc1C(C)Oc1cc(-c2cccn(C)c2=O)cnc1N (stereo not shown) [Example 15, 6′-amino-5′-[1-(5-fluoro-2-methoxyphenyl)ethoxy]-1-methyl-3,3′-bipyridin-2(1H)-one]	16	177	904	> 20000		
COc1ccc(F)cc1C(C)Oc1cc(-c2c(OC)cnn2C)cnc1N (stereo not shown) [Example 16, 3-[1-(5-fluoro-2-methoxyphenyl)ethoxy]-5-(4-methoxy-1-methyl-1H-pyrazol-5-yl)pyridin-2-amine]	1.3	38.1	123	11200		
COc1ccc(F)cc1C(C)Oc1cc(-c2cc(Cl)nnc2N)cnc1N (stereo not shown) [Example 17, 4-{6-amino-5-[1-(5-fluoro-2-methoxyphenyl)ethoxy]-pyridin-3-yl}-6-chloropyridazin-3-amine]	11	133	672	13200		
COc1ccc(F)cc1C(C)Oc1cc(-c2c(CO)cnn2C)cnc1N (stereo not shown) [Example 18, (5-{6-amino-5-[1-(5-fluoro-2-methoxyphenyl)ethoxy]pyridin-3-yl}-1-methyl-1H-pyrazol-4-yl)methanol]	8.1	92.6	421	> 20000		
COc1ccc(F)cc1C(C)Oc1cc(-c2cccnc2OCCO)cnc1N (stereo not shown) [Example 19, 2-{6′-Amino-5′-[1-(5-fluoro-2-methoxy-phenyl)-ethoxy]-[3,3]bipyridinyl-2-yloxy}-ethanol]	1.05	78.7	53.5	> 19700		
COc1ccc(F)cc1[C@@H](C)Oc1cc(-c2cncn2C)cnc1N [Example 22, 3-[(1R)-1-(5-fluoro-2-methoxyphenyl)-ethoxy]-5-(1-methyl-1H-imidazol-5-yl)pyridin-2-amine]		38	47.5	3680		
CC(Oc1cc(-c2cn(C)cn2)cnc1N)c1cc(F)ccc1Cl (stereo not shown) [Example 23, 3-[1-(2-chloro-5-fluorophenyl)-ethoxy]-5-(1-methyMH-imidazol-4-yl)pyridin-2-amine]	45			> 19100	271	1080
COc1ccc(F)cc1[C@@H](C)Oc1cc(-c2c(C)ncn2C)cnc1N [Example 25, 5-(1,4-dimethyl-1H-imidazol-5-yl)-3-[(1R)-1-(5-fluoro-2-methoxyphenyl)-ethoxy]pyridin-2-amine]		38.2		13200		
COc1ccc(F)cc1[C@@H](C)Oc1cc(-c2c(C)nn(CC(O)CO)c2C)cnc1N (stereo partly drawn) [Example 26, 3-(4-{6-amino-5-[(1R)-1-(5-fluoro-2-methoxyphenyl)-ethoxy]pyridin-3-yl}-3,5-dimethyl-1H-pyrazol-1-yl)propane-1,2-diol]	< 0.313	24.1	4.54	4300		
C[C@@H](Oc1cc(-c2scnc2CO)cnc1N)c1cc(F)ccc1-n1nccn1 [Example 28]		63.5		13000		
C[C@@H](Oc1cc(-c2c(F)cnn2C)cnc1N)c1cc(F)ccc1-n1nccn1 [Example 29]		30	151	7480		
Cc1n[nH]cc1-c1cnc(N)c(OC(C)c2cc(F)ccc2C#N)c1 (stereo not shown) [Example 38, 2-(1-{[2-amino-5-(3-methyl-1H-pyrazol-4-yl)pyridin-3-yl]oxy}ethyl)-4-fluorobenzonitrile]				4050		
Cc1n[nH]cc1-c1cnc(N)c(OC(C)c2cc(F)ccc2-n2nccn2)c1 (stereo not shown) [Example 39, 3-{1-[5-fluoro-2-(2H-1,2,3-triazol-2-yl)phenyl]-ethoxy}-5-(3-methyl-1H-pyrazol-4-yl)pyridin-2-amine]				4500		
Cc1n[nH]cc1-c1cnc(N)c(O[C@H](C)c2cc(F)ccc2C#N)c1 [Example 40, 2-[(1R)-1-{[2-amino-5-(3-methyl-1H-pyrazol-4-yl)pyridin-3-yl]oxy}ethyl]-4-fluorobenzonitrile]				1350		
COc1ccc(F)cc1C(C)Oc1cc(-c2ccnn2C)cnc1N (stereo not shown) [Example 43, 3-[1-(5-fluoro-2-methoxyphenyl)-ethoxy]-5-(1-methyl-1H-pyrazol-5-yl)pyridin-2-amine monohydrochloride]	< 0.249	34.9		5090		
COc1ncccc1-c1cnc(N)c(OC(C)c2cc(F)ccc2-n2nccn2)c1 (stereo not shown) [Example 46, 5-{1-[5-fluoro-2-(2H-1,2,3-triazol-2-yl)phenyl]-ethoxy}-2′-methoxy-3,3′-bipyridin-6-amine]				6850		
Cc1n[nH]c(C)c1-c1cnc(N)c(OC(C)c2cc(F)ccc2-n2nccn2)c1 (stereo not shown) [Example 49, 5-(3,5-dimethyl-1H-pyrazol-4-yl)-3-{1-[5-fluoro-2-(2H-1,2,3-triazol-2-yl)phenyl]-ethoxy}pyridin-2-amine]		114		13100		
